Measured values: patent publication US6878736B1, “Histamine H3 receptor ligands” (James Black Foundation Limited, priority 1998, dated 2005)
Where a name gives a salt, the structure may show the parent alone.

Legend:
[1] = molecular target: T1, Histamine H3 receptor (Cavia porcellus, UniProt Q9JI35); test: Histamine H3 radioligand binding assay, guinea pig cortex ([3H]-R-α-methylhistamine); conditions: guinea pig cortex membranes, competition with 1 nM [3H]-R-α-methylhistamine; for Ki: read-out: pKi (Guinea pig cortex) (converted)
Outline: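 Male Dunkin Hartley guinea pig cortical membranes incubated 165 min at 21±3 °C in 20 mM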

[2] = molecular target: T1, Histamine H3 receptor; test: Histamine H3 functional assay, guinea pig ileum (ileal longitudinal muscle, myenteric plexus); parameters: species or system tissue; conditions: antagonist affinity from rightward shift of R-(α)-methylhistamine E/[A] curves (Schild), typical variance ±0.15 log units; for Kb: read-out: pKb (Guinea pig ileum) (converted)
Outline: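 Longitudinal muscle–myenteric plexus strips from male Dunkin-Hartley guinea pigs (250-300 g), Krebs-Henseleit buffer at 37±1° C, field-stimulated at 0.1 Hz, 0.5 msec, supramaximal voltage; isometric recording. Cumulative R-(α)-methylhistamine E/[A] curves as % inhibition of twitch height; antagonist affinity by Schild analysis of rightward shift.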

T1 sequence (Q9JI35 whole entry): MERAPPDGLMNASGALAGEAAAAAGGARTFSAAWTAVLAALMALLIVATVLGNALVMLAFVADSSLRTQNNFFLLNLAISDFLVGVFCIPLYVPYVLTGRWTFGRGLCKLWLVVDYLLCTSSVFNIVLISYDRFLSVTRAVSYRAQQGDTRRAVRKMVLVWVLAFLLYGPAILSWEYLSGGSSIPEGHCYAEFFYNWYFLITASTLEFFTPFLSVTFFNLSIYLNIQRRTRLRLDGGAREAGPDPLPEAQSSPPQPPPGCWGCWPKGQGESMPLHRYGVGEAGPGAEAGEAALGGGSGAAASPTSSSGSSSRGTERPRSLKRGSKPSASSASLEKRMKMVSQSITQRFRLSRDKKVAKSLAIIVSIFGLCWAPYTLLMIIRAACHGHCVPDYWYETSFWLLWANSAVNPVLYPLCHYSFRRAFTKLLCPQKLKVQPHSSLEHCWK

| Compound | Ki [1] [nM] | Kb [2] [nM] | pKi (Guinea pig cortex) [1] | pKb (Guinea pig ileum) [2] | pKi (Guinea pig cortex) ([1]; bis-hydrochloride) |
| --- | --- | --- | --- | --- | --- |
| N=C(NCCCN1CCCC1)Nc1ccc(Cl)cc1 [Example 19, N-(4-Chlorophenyl)-N′-(3-pyrrolidin-1-yl-propyl)-guanidine] | 50.1 | 1000 | – | – | – |
| CN1CCCC1CCCCNS(=O)(=O)NCc1ccc(Cl)cc1 (stereo not drawn) [Example 116, N-(4-Chlorobenzyl)-N′-(4-(1-methyl-pyrrolidin-2S-yl)-butyl)-sulfamide] | 126 | 200 | – | – | – |
| N=C(N)NCCCN1CCCC1 [Example 1, N-(3-Pyrrolidin-1-yl-propyl)-guanidine bis-hydrochloride] | 63.1 | 3980 | – | – | – |
| Cl.Cl.N=C(NCCCCCN1CCCCCC1)NCC12CC3CC(CC(C3)C1)C2 [Example 61, N-Adamantan-1-yl-methyl-N′-(5-azepan-1-yl-pentyl)-guanidine bis-hydrochloride] | – | – | 8.1 | 7.8 | – |
| N=C(NCCCCN1CCCC1)NCc1ccc(Cl)cc1 [Example 17] | 5.01 | 50.1 | – | – | – |
| N=C(NCCCC1CCCCC1)NCCCN1CCCC1 [Example 43, N-(3-Cyclohexyl-propyl)-N′-(3-pyrrolidin-1-yl-propyl)-guanidine bis-hydrochloride] | 100 | 200 | – | – | – |
| N=C(NCCCCCN1CCCC1)NCCCC12CC3CC(CC(C3)C1)C2 [Example 38, N-(3-Adamantan-1-yl-propyl)-N′-(5-pyrrolidin-1-yl-pentyl)-guanidine bis-hydrochloride] | 31.6 | 63.1 | – | – | – |
| CNC(=O)CN(CCC[C@@H]1CCCN1C)S(=O)(=O)NCc1ccc(Cl)cc1 [Example 127, N-(4-Chlorobenzyl)-N′-(methylamidomethyl)-N′-(3-(1-methyl-pyrrolidin-2S-yl)propyl)-sulfamide] | 2000 | 2000 | – | – | – |
| Cl.Cl.N=C(NCCCN1CCCC1)NCc1ccc2ccccc2c1 [Example 4, N-Naphthalen-2-yl-methyl-N′-(3-pyrrolidin-1-yl-propyl)-guanidine bis-hydrochloride] | – | – | 7.1 | 6.5 | – |
| N=C(NCCCN1CCCC1)NCc1cccc(Br)c1 [Example 10, N-(3-Bromobenzyl)-N′-(3-pyrrolidin-1-yl-propyl)-guanidine bis-hydrochloride] | 25.1 | 316 | – | – | – |
| COC(=O)c1ccc(CNC(N)=NCCCN2CCCC2)cc1 [Example 14, 4-(N′-(3-Pyrrolidin-1-yl-propyl)-guanidinomethyl)-benzoic acid methyl ester bis-hydrochloride] | 25.1 | 1000 | – | – | – |
| C[C@H](NC(=N)NCCCCCN1CCCC1)c1ccccc1 [Example 49, N-(1(S)-Phenyl-ethyl)-N′-(5-pyrrolidin-1-yl-pentyl)-guanidine bis-hydrochloride] | 6.31 | 31.6 | – | – | – |
| C[C@@H](c1ccccc1)N(CCCCCN1CCCC1)C(=N)N [Example 75, N-(1-(S)-Phenyl-ethyl)-N-(5-pyrrolidin-1-yl-pentyl)-guanidine bis-hydrochloride] | 25.1 | 126 | – | – | – |
| N=C(NCCCCc1ccccc1)NCCCN1CCCC1 [Example 22, N-(4-Phenylbutyl)-N′-(3-pyrrolidin-1-yl-propyl)-guanidine bis-hydrochloride] | 79.4 | 200 | – | – | – |
| O=S(=O)(Cc1ccc(Cl)cc1)NCCCN1CCCC1 [Example 106, N-(3-Pyrrolidin-1-yl-propyl)-(4-chlorophenyl)-methanesulfonamide] | 1000 | 631 | – | – | – |
| N=C(N)N(CCCCCCN1CCCCC1)Cc1ccc(Cl)cc1 [Example 72, N-(4-Chlorobenzyl)-N-(6-piperidin-1-yl-hexyl)-guanidine bis-hydrochloride] | 5.01 | 3.16 | – | – | – |
| N-Adamantan-1-yl-methyl-N′-(3-pyrrolidin-1-yl-propyl)-guanidine bis-hydrochloride [Example 28] | – | – | 7.5 | 6.7 | – |
| N-Adamantan-1-yl-methyl-N′-(4-pyrrolidin-1-yl-butyl)-guanidine bis-hydrochloride [Example 29] | – | – | 8.4 | 7.7 | – |
| N=C(NCCCCCN1CCCC1)NCc1ccccc1 [Example 47, N-Benzyl-N′-(5-pyrrolidin-1-yl-pentyl)-guanidine bis-hydrochloride] | 3.98 | 50.1 | – | – | – |
| O=S(=O)(NCCCCCN1CCCC1)NCc1ccc(Cl)cc1 [Example 141, N-(4-Chlorobenzyl)-N′-(5-pyrrolidin-1-yl-pentyl)-sulfamide] | 251 | 501 | – | – | – |
| CCC(C)CNC(=N)NCCCCCN1CCCC1 (stereo not shown) [Example 67, N-(2-Methyl-butyl)-N′-(5-pyrrolidin-1-yl-pentyl)-guanidine bis-hydrochloride] | 2.51 | 50.1 | – | – | – |

| Compound | Ki [1] [nM] | Kb [2] [nM] | pKi (Guinea pig cortex) [1] | pKb (Guinea pig ileum) [2] | pKi (Guinea pig cortex) ([1]; bis-hydrochloride) |
| --- | --- | --- | --- | --- | --- |
| CNC(=NCCCN1CCCC1)NCc1ccc(Cl)cc1 [Example 64, N-(4-Chlorobenzyl)-N′-methyl-N″-(3-pyrrolidin-1-yl-propyl)-guanidine] | 63.1 | 631 | – | – | – |
| CN1CCC[C@H]1CCCN(C)S(=O)(=O)NCc1ccc(Cl)cc1 [Example 122, N-(4-Chlorobenzyl)-N′-methyl-N′-(3-(1-methyl-pyrrolidin-2S-yl)propyl)-sulfamide] | 126 | 316 | – | – | – |
| Cl.Cl.N=C(NCCCCCCN1CCCC1)NCC12CC3CC(CC(C3)C1)C2 [Example 77, N-Adamantan-1-yl-methyl-N-(6-pyrrolidin-1-yl-hexyl)-guanidine bis-hydrochloride] | – | – | – | 8.0 | 8.2 |
| CN1CCN(CCCCCNC(=N)NCC23CC4CC(CC(C4)C2)C3)CC1.Cl.Cl.Cl [Example 63, N-Adamantan-1-yl-methyl-N′-(5-(4-methyl-piperazin-1-yl)-pentyl)-guanidine tris-hydrochloride] | – | – | 7.7 | 7.4 | – |
| N=C(NCCCN1CCCC1)NCc1ccc2[nH]cnc2c1 [Example 13, N-(1H-Benzimidazol-5-yl-methyl)-N′-(3-pyrrolidin-1-yl-propyl)-guanidine tris-hydrochloride] | 20 | 501 | – | – | – |
| N=C(NCCCCCN1CCCC1)NCc1ccc2ccccc2c1 [Example 53, N-(Naphthalen-2-yl-methyl)-N′-(5-pyrrolidin-1-yl-pentyl)guanidine bis-hydrochloride] | 7.94 | 79.4 | – | – | – |
| Cl.Cl.N=C(NCCCCCCCN1CCCC1)NCC12CC3CC(CC(C3)C1)C2 [Example 32, N-Adamantan-1-yl-methyl-N′-(7-pyrrolidin-1-yl-heptyl)-guanidine bis-hydrochloride] | – | – | 8.5 | 8.0 | – |
| N=C(NCCCCCN1CCCC1)N1CCc2ccccc2C1 [Example 51, N-(5-Pyrrolidin-1-yl-pentyl)-3,4-dihydro-1H-isoquinoline-2-carboxamidine bis-hydrochloride] | 7.94 | 100 | – | – | – |
| CN1CCCC1CCNS(=O)(=O)c1ccc2ccccc2c1 (stereo not shown) [Example 89, N-(2-(1-Methyl-pyrrolidin-2-yl)-ethyl)-2-naphthalenesulfonamide] | 100 | 631 | – | – | – |
| CN1CCC[C@H]1CCCNS(=O)(=O)Cc1ccc(Br)cc1 [Example 101, N-(3-(1-Methyl-pyrrolidin-2S-yl)-propyl)-(4-bromophenyl)-methanesulfonamide] | 251 | 1000 | – | – | – |
| CN1CCC[C@H]1CCCNS(=O)(=O)NCc1ccc(I)cc1 [Example 114, N-(4-Iodobenzyl)-N′-(3-(1-methyl-pyrrolidin-2S-yl)-propyl)-sulfamide] | 316 | 100 | – | – | – |
| N=C(NCCCCCN1CCCC1)NCCC12CC3CC(CC(C3)C1)C2 [Example 37, N-(2-Adamantan-1-yl-ethyl)-N′-(5-pyrrolidin-1-yl-pentyl)-guanidine bis-hydrochloride] | 12.6 | 25.1 | – | – | – |
| N=C(NCCCN1CCCC1)NCc1ccc(Cl)cc1 [Example 2, N-(4-Chlorobenzyl)-N′-(3-pyrrolidin-1-yl-propyl)-guanidine bis-hydrochloride] | 50.1 | 398 | – | – | – |
| N=C(NCCCCN1CCCC1)NCCC12CC3CC(CC(C3)C1)C2 [Example 35, N-(2-Adamantan-1-yl-ethyl)-N′-(4-pyrrolidin-1-yl-butyl)-guanidine bis-hydrochloride] | 7.94 | 20 | – | – | – |
| N=C(NCCCN1CCCC1)NCCC1CCCCC1 [Example 42, N-(2-Cyclohexyl-ethyl)-N′-(3-pyrrolidin-1-yl-propyl)-guanidine bis-hydrochloride] | 25.1 | 398 | – | – | – |
| CCCCNC(=N)NCCCCCN1CCCC1 [Example 65, N-Butyl-N′-(5-pyrrolidin-1-yl-pentyl)-guanidine] | 5.01 | 79.4 | – | – | – |
| CN1CCC[C@H]1CCCNS(=O)(=O)NCc1ccc(Br)cc1 [Example 113, N-(4-Bromobenzyl)-N′-(3-(1-methyl-pyrrolidin-2S-yl)-propyl)-sulfamide] | 100 | 200 | – | – | – |
| N=C(NCCCCN1CCCC1)NCc1ccc(C2CCCCC2)cc1 [Example 56, N-(4-Cyclohexylbenzyl)-N′-(4-pyrrolidin-1-yl-butyl)-guanidine bis-hydrochloride] | 20 | 63.1 | – | – | – |
| Cc1ccccc1CN(CCCCCCN1CCCC1)C(=N)N [Example 76, N-(2-Methylbenzyl)-N-(6-pyrrolidin-1-yl-hexyl)-guanidine bis-hydrochloride] | 1.58 | 7.94 | – | – | – |
| CC(C)CCNC(=N)NCCCCCN1CCCC1 [Example 66] | 2.51 | 39.8 | – | – | – |
